These results are taken from patent US20230203060A1 (GENFLEET THERAPEUTICS (SHANGHAI) INC., priority 2020, published 2023).

The subject of test [1] is KRAS G12C mutant NCI-H358 cells. The test can be described thus: Cell proliferation inhibition experiment, 3D spheroid, CellTiter-Glo, NCI-H358. The class given is cell-based, human. Particulars: Homo sapiens, NCI-H358, 120 h, NCI-H358 (KRAS G12C mutant) 3D spheroid, 5 days with compound, CellTiter-Glo; read-out: H358 IC50. Put shortly:
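First, H358 (800/well) or A549 (400/well) cells are plated in 2% FBS medium and left overnight to form spheroids. Next, compound is added as a 3.16-fold gradient at 0.1% DMSO for 5 days. Finally, CellTiter-Glo signal is read and IC50 derived by four-parameter fitting.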
(In ATP-based viability assays light output follows the ATP content of the culture.)

Test [2] has as its system phosphorylated ERK downstream of KRAS G12C in MIA PaCa2 cells. Nature of the test: Cell p-ERK detection experiment (HTRF) in MIA PaCa2. The format is cell-based, human. The settings on record: Homo sapiens, MIA PaCa-2, 2 h, MIA PaCa2 cells, 2 hours with compound, Advance ERK phospho-T202/Y204 HTRF kit; read-out: p-ERK IC50. The text has this: Raw materials and instruments: MIA PaCa-2 purchased from ATCC; article number: CRL-1420; batch number: 63143594; DMEM purchased from Gibco; article number: 11995-065; batch number: 2186878; FBS purchased from Gibco; article number: 10099-141; batch number: 2109290CP; Horse serum purchased from Gibco; article number: 16050-122; batch number: 1818976; Trypsin-EDTA purchased from Gibco; article number: 25200-072; batch number: 2085552; PS purchased from Gibco; article number: 15140-122; batch number: 2145451; DMSO purchased from VWR AMRESCO; article number: 0231-500ML; batch number: 0457C072; 96-well cell culture plate purchased from Corning; article number: 3599; batch number: 22718601; white opaque 96-well plate purchased from Cisbio; article number: 66PL96025; batch number: N°05; Advance ERK phospho-T202/Y204 kit purchased from Cisbio; article number: 64AERPEH; batch number: 11D; microplate reader purchased from PerkinElmer; model: Envision MLD2105-0020; equipment number 1050369.
MIA PaCa2 was a KRAS G12C mutant human pancreatic cancer cell line cultured in 10% FBS+2.5% Horse serum DMEM culture medium. Cells at logarithmic growth stage were taken, digested with trypsin-EDTA, then collected and counted, and 2.5E4 cells were inoculated in a 96-well cell culture plate and cultured overnight. A 3.16-fold gradient concentration stock solution of 1000× compound was prepared with DMSO, and diluted 200-fold to 5× compound stock solution with culture medium. On the second day after cell inoculation, 5× compound stock solution was added to each cell culture well, with a final concentration of 1× and a DMSO content of 0.1%. DMSO was used as experimental control (control). After the compound was added and cultured for two hours, the residual culture medium was removed. 50 μL of cell lysate (from Advance ERK phospho-T202/Y204 kit, the same below) was added to each well, mixed well and incubated for 30 minutes, and then 16 μL of the mixed solution was transferred to a white opaque 96-well plate, and 16 μL of cell lysate was added to the blank wells. After the transfer was completed, 4 μL of p-ERK HTRF antibody (from Advance ERK phospho-T202/Y204 kit) mixture was added to each well, incubated for 4 hours, and the fluorescence value was read with the microplate reader. The inhibition rate of the compound IR (%)=(RLU control -RLU compound)/(RLU control-RLU blank)×100% was calculated. The gradient dilution concentration of the compound and the corresponding cell proliferation inhibition rate were fitted by Prism 8 four-parameter method, and the IC50 value was calculated. The compounds prepared in the above embodiments of the present disclosure have inhibitory activity of 0.0001 μM to 1 μM on the phosphorylated ERK level downstream of the cell channel of KRAS G12C protein mutant; some compounds have inhibitory activity of 0.001 μM to 1 μM or 0.001 μM to 0.5 μM on phosphorylated ERK level downstream of cell channel of KRAS G12C protein mutant.
Background: TR-FRET usually uses a lanthanide donor and a delayed reading to cut background.

Take `C=CC(=O)N1CCN2C(=O)c3c(N4C[C@@H](O)CC4(C)C)nc(-c4c(F)ccc(Cl)c4O)c(F)c3OC[C@H]2C1` (single isomer, unassigned) [Z341-1]: the 50% inhibitory concentration (IC50) in test [1] was determined as 0.008 µM; in test [2], 0.106 µM.

Consider `C=CC(=O)N1CCN2C(=O)c3c(N4Cc5nn(C)cc5[C@@H]4C)nc(-c4c(O)cccc4F)c(Cl)c3OC[C@H]2C1` (single isomer, unassigned) [Z345-2], for which the half-maximal inhibitory concentration (IC50) in test [1] is 0.0118 µM; in test [2], 0.061 µM.

For `C=CC(=O)N1CCN2C(=O)c3c(N4CC[C@@H](N(C)C)C4(C)C)nc(-c4c(O)cccc4F)c(Cl)c3OC[C@H]2C1` (single isomer, unassigned) [Z360-1], the values for the concentration for half-maximal inhibition (IC50) in test [1] and in test [2] were 0.0118 µM and 0.085 µM, respectively.

As to `C=CC(=O)N1CCN2C(=O)c3c(N4CC[C@H](N(C)C)C4(C)C)nc(-c4c(O)cccc4F)c(Cl)c3OC[C@H]2C1` (single isomer, unassigned) [Z360-2], the IC50 was 0.003 µM in test [1] and 0.025 µM in test [2].

In the case of `C=CC(=O)N1CCN2C(=O)c3c(N4C[C@@H](O)CC4(C)C)nc(-c4c(F)ccc(F)c4O)c(F)c3OC[C@H]2C1` (single isomer, unassigned) [Z449-1], the 50% inhibitory concentration (IC50) in test [1] amounted to 0.007 µM; in test [2], 0.151 µM.

With `C=CC(=O)N1CCN2C(=O)c3c(Nc4c(C(C)C)ncnc4C(C)C)nc(-c4c(O)cccc4F)c(Cl)c3OC[C@H]2C1` [Z15, (6aR)-8-acryloyl-4-chloro-1-((4,6-diisopropylpyrimidin-5-yl)amino)-3-(2-fluoro-6-hydroxyphenyl)-6,6a,7,8,9,10-hexahydro-12H-pyrazino[2,1-c]pyrido[3,4-f][1,4]oxazepin-12-one], the figures for the IC50 in test [1] and in test [2] were 0.01 µM and 0.065 µM, respectively.

Take `C=CC(=O)N1CCN2C(=O)c3c(N(C)c4c(C(C)C)ncnc4C(C)C)nc(-c4c(O)cccc4F)c(Cl)c3OC[C@H]2C1` [Z20, (6aR)-8-acryloyl-4-chloro-1-((4,6-diisopropylpyrimidin-5-yl)(methyl)amino)-3-(2-fluoro-6-hydroxyphenyl)-6,6a,7,8,9,10-hexahydro-12H-pyrazino[2,1-c]pyrido[3,4-f][1,4]oxazepin-12-one]: the IC50 in test [1] was 0.004 µM; in test [2] it was 0.086 µM.

For the compound `C=CC(=O)N1CCN2C(=O)c3c(N4CCC(C)(C)C4)nc(-c4c(O)cccc4F)c(Cl)c3OC[C@H]2C1` [Z21, (6aR)-8-acryloyl-4-chloro-1-(3,3-dimethylpyrrolidin-1-yl)-3-(2-fluoro-6-hydroxyphenyl)-6,6a,7,8,9,10-hexahydro-12H-pyrazino[2,1-c]pyrido[3,4-f][1,4]oxazepin-12-one], the IC50 came to 0.029 µM in test [1] and 0.325 µM in test [2].

Consider `C=CC(=O)N1CCN2C(=O)c3c(N4CCCC4(C)C)nc(-c4c(O)cccc4F)c(Cl)c3OC[C@H]2C1` [Z22, (6aR)-8-acryloyl-4-chloro-1-(2,2-dimethylpyrrolidin-1-yl)-3-(2-fluoro-6-hydroxyphenyl)-6,6a,7,8,9,10-hexahydro-12H-pyrazino[2,1-c]pyrido[3,4-f][1,4]oxazepin-12-one], for which the IC50 is 0.002 µM in test [1] and 0.026 µM in test [2].

With `C=CC(=O)N1CCN2C(=O)c3c(N4CCN(C)C5(CC5)C4)nc(-c4c(O)cccc4F)c(Cl)c3OC[C@H]2C1` [Z83, (6aR)-8-acryloyl-4-chloro-3-(2-fluoro-6-hydroxyphenyl)-1-(4-methyl-4,7-diazaspiro[2 .5]octan-7-yl)-6,6a,7,8,9,10-hexahydro-12H-pyrazino[2,1-c]pyrido[3,4-f][1,4]oxazepin-12 (6aH)-one], the IC50 in test [1] is 0.018 µM; in test [2], 0.107 µM.

As for `C=CC(=O)N1CCN2C(=O)c3c(N4C[C@H](N(C)C)C[C@@H]4C)nc(-c4c(O)cccc4F)c(Cl)c3OC[C@H]2C1` [Z237-1, (6aR)-8-acryloyl-4-chloro-1-((2S,4R)-4-(dimethylamino)-2-methylpyrrolidin-1-yl)-3-(2-fluoro-6-hydroxyphenyl)-6,6a,7,8,9,10-hexahydro-12H-pyrazino[2,1-c]pyrido[3,4-f][1,4]oxazepin-12-one], the IC50 amounted to 0.0146 µM in test [1] and 0.03 µM in test [2].

For the compound `C=CC(=O)N1CCN2C(=O)c3c(N4C[C@@H](N(C)C)C[C@@H]4C)nc(-c4c(O)cccc4F)c(Cl)c3OC[C@H]2C1` [Z237-2, (6aR)-8-acryloyl-4-chloro-1-((2S,4S)-4-(dimethylamino)-2-methylpyrrolidin-1-yl)-3-(2-fluoro-6-hydroxyphenyl)-6,6a,7,8,9,10-hexahydro-12H-pyrazino[2,1-c]pyrido[3,4-f][1,4]oxazepin-12-one], the IC50 in test [1] amounted to 0.006 µM; in test [2], 0.03 µM.

Take `C=CC(=O)N1CCN2C(=O)c3c(N4CC(CO)CC4(C)C)nc(-c4c(O)cccc4F)c(Cl)c3OC[C@H]2C1` (stereo partly drawn) [Z240, (6aR)-8-acryloyl-4-chloro-3-(2-fluoro-6-hydroxyphenyl)-1-(4-(hydroxymethyl)-2,2-dimethylpyrrolidin-1-yl)-6,6a,7,8,9,10-hexahydro-12H-pyrazino[2,1-c]pyrido[3,4-f][1,4]oxazepin-12-one]: the IC50 in test [1] stood at 0.0024 µM; in test [2], 0.022 µM.

For the compound `C=CC(=O)N1CCN2C(=O)c3c(N4CCC(O)C4(C)C)nc(-c4c(O)cccc4F)c(Cl)c3OC[C@H]2C1` (stereo partly drawn) [Z241, (6aR)-8-acryloyl-1-(3-hydroxy-2,2-dimethylpyrrolidin-1-yl)-4-chloro-3-(2-fluoro-6-hydroxyphenyl)-6,6a,7,8,9,10-hexahydro-12H-pyrazino[2,1-c]pyrido[3,4-f][1,4]oxazepin-12-one], the IC50 in test [1] was found to be 0.0026 µM; in test [2], 0.022 µM.

With `C=CC(=O)N1CCN2C(=O)c3c(N4CCC(OC)C4(C)C)nc(-c4c(O)cccc4F)c(Cl)c3OC[C@H]2C1` (stereo partly drawn) [Z241a, (6aR)-8-acryloyl-4-chloro-3-(2-fluoro-6-hydroxyphenyl)-1-(3-methoxy-2,2-dimethylpyrrolidin-1-yl)-6,6a,7,8,9,10-hexahydro-12H-pyrazino[2,1-c]pyrido[3,4-f][1,4]oxazepin-12-one], the 50% inhibitory concentration (IC50) was determined as 0.0011 µM in test [1] and 0.012 µM in test [2].

Consider `C=CC(=O)N1CCN2C(=O)c3c(N4CC(C)(O)CC4(C)C)nc(-c4c(O)cccc4F)c(Cl)c3OC[C@H]2C1` (stereo partly drawn) [Z243, (6aR)-8-acryloyl-4-chloro-3-(2-fluoro-6-hydroxyphenyl)-1-(4-hydroxy-2,2,4-trimethylpyrrolidin-1-yl)-6,6a,7,8,9,10-hexahydro-12H-pyrazino[2,1-c]pyrido[3,4-f][1,4]oxazepin-12-one], for which the half-maximal inhibitory concentration (IC50) in test [1] was found to be 0.0022 µM; in test [2], 0.019 µM.

For the compound `C=CC(=O)N1CCN2C(=O)c3c(N4CC(OC)CC4(C)C)nc(-c4c(O)cccc4F)c(Cl)c3OC[C@H]2C1` (stereo partly drawn) [Z244, (6aR)-8-acryloyl-4-chloro-3-(2-fluoro-6-hydroxyphenyl)-1-(4-methoxy-2,2-dimethylpyrrolidin-1-yl)-12-oxo-6,6a,7,8,9,10-hexahydro-12H-pyrazino[2,1-c]pyrido[3,4-f][1,4]oxazepin-12-one], the IC50 stood at 0.0029 µM in test [1] and 0.019 µM in test [2].

`C=CC(=O)N1CCN2C(=O)c3c(N4CCN(CCOC)C[C@@H]4C)nc(-c4c(O)cccc4F)c(Cl)c3OC[C@H]2C1` [Z257a, (6aR)-8-acryloyl-4-chloro-3-(2-fluoro-6-hydroxyphenyl)-1-((S)-4-(2-methoxyethyl)-2-methylpiperazin-1-yl)-6,6a,7,8,9,10-hexahydro-12H-pyrazino[2,1-c]pyrido[3,4-f][1,4]oxazepin-12-one]: the IC50 in test [1] was determined as 0.004 µM; in test [2] it was 0.026 µM.

A word on the IC50: it is the concentration that gives 50% inhibition.
